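Growth conditions: 96-well plates. Treatment: test compound, 48 hours, 5 concentrations. Analysis: linear interpolation between bracketing concentrations; unreached endpoints set to highest concentration. Abbreviation: GI50, concentration required for 50% inhibition of growth. At the TGI there is no net growth.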 Some results are limits rather than exact numbers.

The first experiment deals with HS 578T breast. Put plainly: NCI anticancer screen, dose series, 48 h.
For `CCN1CCN(c2nc(NCCNc3ccnc4cc(Cl)ccc34)c3ccccc3n2)CC1`, the GI50 is 2.19 µM and the TGI was found to be 7.36 µM.
The corresponding values for `COc1ccccc1NC(=O)c1ccc(/C=C/C(=O)c2nccn2C)cc1` are 1.1 µM and 9.8 µM.
The corresponding values for `Cn1cc(C2=C(c3ccc(OC[C@@H](O)CO)cc3)C(=O)NC2=O)c2ccccc21` are 7.87 µM and over 25 µM.
The corresponding values for `O=C1c2ccccc2-c2c1c1cc3c(cc1c(=O)n2CCCCl)OCO3` are over 100 µM and over 100 µM.

In a further experiment the test system is LXFL 529 NSCLC. Put plainly: NCI anticancer screen, dose series, 48 h.
Consider `C1CN2N3CCCC23C1` (centres undefined), for which the TGI is over 100 µM.
Turning to `Cc1cccc(C(C)(C)C)c1NC(=O)C(=O)Cc1nc2ccccc2s1`, the TGI was over 100 µM.
In turn, `CC(=O)OCCc1cccnc1/C=N/O` registered a TGI of over 100 µM.
Same read-out and setting: the value for `CCC1CCC2CCCC(C)N12` (centres undefined) was over 100 µM; that for `O=C1CC[C@H]2CNC(=O)C[C@H]2C1` was over 100 µM.
The same measure, in the same setting: the value for `C#CC(C)(C)Oc1cc(O)c2c(=O)c3ccccc3n(C)c2c1` was over 100 µM.
Still for that read-out and setting: the value for `CN1CCCNCCN(CCc2ccccn2)CCCN(C)CC1` was over 100 µM; that for `C[C@]12CCC(=O)C=C1CC[C@@H]1C2CC[C@]2(C)NC(=O)C(C#N)CC12` (some centres undefined) was over 100 µM; that for `CCOC(=O)CCCO` was over 100 µM.
`COC(=O)c1c(OC)cccc1C(=O)O`: the TGI is over 100 µM.
Consider `CC1=CCCC(OC(N)=O)C1` (centres undefined), for which the TGI is over 100 µM.
The same measure, in the same setting: the value for `c1ccc(-c2nnc(-c3nn(-c4ccccc4)c4nc5ccccc5nc34)o2)cc1` was over 100 µM.
Still for that read-out and setting: to `O=[N+]([O-])c1ccc(NSc2ccccc2)cc1` belongs 70.9 µM; to `COc1ccc(N=Cc2cc(OC)c(OC)c(OC)c2)cc1`, over 100 µM; to `Cc1c(C(=O)/C=C/c2cccc3ccccc23)[n+](=O)c2ccccc2n1[O-]`, 20.6 µM.
As for `CC(=O)/C=C/c1cccc(N=S)c1`, the TGI stood at 32.9 µM.
The same measure, in the same setting: to `COc1cc([C@@H]2c3cc4c(cc3[C@@H](NC(=O)c3cccc([N+](=O)[O-])c3)C3COC(=O)[C@@H]32)OCO4)cc(OC)c1O` (some centres undefined) belongs over 100 µM; to `O=C1/C(=C/c2ccccc2)CN(C(=O)Oc2ccc(Cl)cc2)C/C1=C\c1ccccc1`, 3.64 µM.
Still for that read-out and setting: to `CC1=C[C@@H]2Cc3occc3C(C)(C)[C@@H]2CC1` belongs over 100 µM.
The same measure, in the same setting: the value for `O=C1NC(=O)C2C(=O)NC(=O)C1C2(c1ccccc1)c1ccc(Cl)cc1` (centres undefined) was over 100 µM; that for `O=C(O)c1cc(S(=O)(=O)N=NC=C2c3ccccc3N(O)c3ccccc32)ccc1O` was 28.6 µM.
Compound `O=c1[nH]c(=O)n(C2CC(O)C(CO)O2)cc1C#Cc1c(F)c(F)c(F)c(F)c1F` (centres undefined) displayed a TGI of over 100 µM.
On the same count and under the same terms, the value for `COC(=O)C(CC(=O)c1cc2c(cc1I)OCO2)Cc1cc(OC)c(OC)c(OC)c1I` (centres undefined) was over 100 µM; that for `C/C(=N\NC(N)=S)c1ccc(C)cc1C` was over 100 µM; that for `O=S(=O)(O)C(O)/C=C/c1ccccc1` (centres undefined) was over 100 µM.
Same read-out and setting: the value for `O=C(Nc1ccccc1[N+](=O)[O-])c1ccccc1` was over 100 µM.
Still for that read-out and setting: the value for `COc1ccc(/C=C(/C(=O)O)c2cc(OC)c(OC)c(OC)c2)cc1` was over 100 µM.
Regarding `COc1cc2c(cc1O)[C@H](Cc1ccc(Oc3cc(C[C@H]4c5cc(OC)c(OC)cc5CCN4C)ccc3OC)cc1)NCC2`, the TGI turned out to be 28.2 µM.
On the same count and under the same terms, the value for `OCc1c(-c2cccc3ccccc23)sc(-c2cccc3ccccc23)c1CO` was 27.6 µM; that for `O=C1Oc2cc3c(c4cccc1c24)OCN(c1ccc(Cl)cc1)C3` was 25 µM.
On the same count and under the same terms, to `OCCNCO` belongs over 100 µM.
Still for that read-out and setting: to `O=C(N/N=C/c1cccc(O)c1O)N/N=C/c1cccc(O)c1O` belongs over 100 µM; to `COc1cc2c(cc1OC)C1C=NC(C(=O)O)(C2)c2ccccc21` (centres undefined), over 100 µM; to `C[Si](C)(C)c1ccc(CC2(Cc3ccc([Si](C)(C)C)cc3)CCNC2)cc1`, 4.79 µM.
In the case of `Cc1cc(C)nc(NS(=O)(=O)c2ccc(NC(=O)c3cccc4c(=O)c5ccccc5[nH]c34)cc2)n1`, the TGI was over 100 µM.
Same read-out and setting: to `CCCCCCCCCCCCCCC1OC(=O)c2ccccc21` (centres undefined) belongs over 100 µM; to `CC(C)(C)C1=NC(S)NC(CCC(=O)Nc2ccccc2[N+](=O)[O-])=C1` (centres undefined), over 100 µM.

Another experiment concerns M19-MEL melanoma. Put plainly: NCI anticancer screen, dose series, 48 h.
For `NC1(CCCCCCCCCCC(=O)O)CNCCNCCNCCNC1`, the TGI is over 100 µM.
The same measure, in the same setting: to `C1CN2N3CCCC23C1` (centres undefined) belongs over 100 µM; to `Cc1cccc(C(C)(C)C)c1NC(=O)C(=O)Cc1nc2ccccc2s1`, over 100 µM.
Still for that read-out and setting: to `CC(=O)OCCc1cccnc1/C=N/O` belongs over 100 µM.
Take `CCC1CCC2CCCC(C)N12` (centres undefined): the TGI was over 100 µM.
The same measure, in the same setting: the value for `O=C1CC[C@H]2CNC(=O)C[C@H]2C1` was over 100 µM; that for `CN1CCCNCCN(CCc2ccccn2)CCCN(C)CC1` was over 100 µM.
The same measure, in the same setting: the value for `C[C@]12CCC(=O)C=C1CC[C@@H]1C2CC[C@]2(C)NC(=O)C(C#N)CC12` (some centres undefined) was over 100 µM; that for `COC(=O)c1c(OC)cccc1C(=O)O` was over 100 µM; that for `CC1=CCCC(OC(N)=O)C1` (centres undefined) was over 100 µM.
The same measure, in the same setting: to `c1ccc(-c2nnc(-c3nn(-c4ccccc4)c4nc5ccccc5nc34)o2)cc1` belongs over 100 µM; to `COc1ccc(N=Cc2cc(OC)c(OC)c(OC)c2)cc1`, over 100 µM.
For the compound `Cc1c(C(=O)/C=C/c2cccc3ccccc23)[n+](=O)c2ccccc2n1[O-]`, the TGI was determined as 26.4 µM.
On the same count and under the same terms, to `CC(=O)/C=C/c1cccc(N=S)c1` belongs 18.3 µM; to `COc1cc([C@@H]2c3cc4c(cc3[C@@H](NC(=O)c3cccc([N+](=O)[O-])c3)C3COC(=O)[C@@H]32)OCO4)cc(OC)c1O` (some centres undefined), over 100 µM.
Still for that read-out and setting: the value for `O=C1/C(=C/c2ccccc2)CN(C(=O)Oc2ccc(Cl)cc2)C/C1=C\c1ccccc1` was 2.41 µM; that for `CC1=C[C@@H]2Cc3occc3C(C)(C)[C@@H]2CC1` was 31.2 µM; that for `O=C1NC(=O)C2C(=O)NC(=O)C1C2(c1ccccc1)c1ccc(Cl)cc1` (centres undefined) was over 100 µM.
`O=C(O)c1cc(S(=O)(=O)N=NC=C2c3ccccc3N(O)c3ccccc32)ccc1O` displayed a TGI of 58.6 µM.
Same read-out and setting: the value for `O=c1[nH]c(=O)n(C2CC(O)C(CO)O2)cc1C#Cc1c(F)c(F)c(F)c(F)c1F` (centres undefined) was over 100 µM.
`COC(=O)C(CC(=O)c1cc2c(cc1I)OCO2)Cc1cc(OC)c(OC)c(OC)c1I` (centres undefined): the TGI was over 100 µM.
Still for that read-out and setting: the value for `C/C(=N\NC(N)=S)c1ccc(C)cc1C` was over 100 µM; that for `O=S(=O)(O)C(O)/C=C/c1ccccc1` (centres undefined) was over 100 µM.
The compound `O=C(Nc1ccccc1[N+](=O)[O-])c1ccccc1` gave a TGI of over 100 µM.
Still for that read-out and setting: to `COc1ccc(/C=C(/C(=O)O)c2cc(OC)c(OC)c(OC)c2)cc1` belongs over 100 µM; to `COc1cc2c(cc1O)[C@H](Cc1ccc(Oc3cc(C[C@H]4c5cc(OC)c(OC)cc5CCN4C)ccc3OC)cc1)NCC2`, 49.2 µM.
Still for that read-out and setting: to `OCc1c(-c2cccc3ccccc23)sc(-c2cccc3ccccc23)c1CO` belongs 29.4 µM; to `O=C1Oc2cc3c(c4cccc1c24)OCN(c1ccc(Cl)cc1)C3`, over 57 µM.
`OCCNCO` registered a TGI of over 100 µM.
Consider `O=C(N/N=C/c1cccc(O)c1O)N/N=C/c1cccc(O)c1O`, for which the TGI was over 100 µM.
On the same count and under the same terms, to `COc1cc2c(cc1OC)C1C=NC(C(=O)O)(C2)c2ccccc21` (centres undefined) belongs over 100 µM; to `C[Si](C)(C)c1ccc(CC2(Cc3ccc([Si](C)(C)C)cc3)CCNC2)cc1`, 3.64 µM; to `CCCCCCCCCCCCCCC1OC(=O)c2ccccc21` (centres undefined), over 100 µM.
The compound `CC(C)(C)C1=NC(S)NC(CCC(=O)Nc2ccccc2[N+](=O)[O-])=C1` (centres undefined) displayed a TGI of over 100 µM.

A further experiment relates to MCF7 breast. Put plainly: NCI anticancer screen, dose series, 48 h.
`O=C1CSC(N2CCN(c3cccc(Cl)c3)CC2)=N1`: the GI50 was over 100 µM and the TGI was over 100 µM.
For `CCN1CCN(c2nc(NCCNc3ccnc4cc(Cl)ccc34)c3ccccc3n2)CC1`, the GI50 was 1.11 µM and the TGI amounted to 11 µM.
Consider `COc1ccccc1NC(=O)c1ccc(/C=C/C(=O)c2nccn2C)cc1`, for which the GI50 is 0.404 µM and the TGI came to 0.977 µM.
On the same counts, the results for `Cn1cc(C2=C(c3ccc(OC[C@@H](O)CO)cc3)C(=O)NC2=O)c2ccccc21` are over 25 µM and over 25 µM.
The corresponding values for `O=C1c2ccccc2-c2c1c1cc3c(cc1c(=O)n2CCCCl)OCO3` are 17.7 µM and over 100 µM.

For another experiment, the system named is NCI/ADR-RES ovarian. Nature of the experiment: NCI anticancer screen, dose series, 48 h.
In the case of `O=C1CSC(N2CCN(c3cccc(Cl)c3)CC2)=N1`, the GI50 is over 100 µM and the TGI is over 100 µM.
`CCN1CCN(c2nc(NCCNc3ccnc4cc(Cl)ccc34)c3ccccc3n2)CC1`: the GI50 is 4.57 µM and the TGI amounted to 25.8 µM.
With `COc1ccccc1NC(=O)c1ccc(/C=C/C(=O)c2nccn2C)cc1`, the GI50 was 0.806 µM and the TGI was 9.77 µM.
On the same counts, the results for `Cn1cc(C2=C(c3ccc(OC[C@@H](O)CO)cc3)C(=O)NC2=O)c2ccccc21` are over 25 µM and over 25 µM.
Consider `O=C1c2ccccc2-c2c1c1cc3c(cc1c(=O)n2CCCCl)OCO3`, for which the GI50 was 24.9 µM and the TGI is over 100 µM.

Another experiment relates to PC-3 prostate. Nature of the experiment: NCI anticancer screen, dose series, 48 h.
Regarding `O=C1CSC(N2CCN(c3cccc(Cl)c3)CC2)=N1`, the GI50 was over 100 µM and the TGI is over 100 µM.
Regarding `CCN1CCN(c2nc(NCCNc3ccnc4cc(Cl)ccc34)c3ccccc3n2)CC1`, the GI50 is 2.4 µM and the TGI is 15.7 µM.
Take `COc1ccccc1NC(=O)c1ccc(/C=C/C(=O)c2nccn2C)cc1`: the GI50 is 0.628 µM and the TGI was 1.65 µM.
On the same counts, the results for `Cn1cc(C2=C(c3ccc(OC[C@@H](O)CO)cc3)C(=O)NC2=O)c2ccccc21` are over 25 µM and over 25 µM.
Regarding `O=C1c2ccccc2-c2c1c1cc3c(cc1c(=O)n2CCCCl)OCO3`, the GI50 was 42.7 µM and the TGI was over 100 µM.

A further experiment has as its system T-47D breast. Put plainly: NCI anticancer screen, dose series, 48 h.
Take `O=C1CSC(N2CCN(c3cccc(Cl)c3)CC2)=N1`: the GI50 is over 100 µM and the TGI is over 100 µM.
`CCN1CCN(c2nc(NCCNc3ccnc4cc(Cl)ccc34)c3ccccc3n2)CC1`: the GI50 was 1.92 µM and the TGI was found to be 4.42 µM.
The corresponding values for `COc1ccccc1NC(=O)c1ccc(/C=C/C(=O)c2nccn2C)cc1` are 0.711 µM and 2.58 µM.
The corresponding values for `Cn1cc(C2=C(c3ccc(OC[C@@H](O)CO)cc3)C(=O)NC2=O)c2ccccc21` are over 25 µM and over 25 µM.
The corresponding values for `O=C1c2ccccc2-c2c1c1cc3c(cc1c(=O)n2CCCCl)OCO3` are over 100 µM and over 100 µM.

These data come from PubChem BioAssay (NCI).
